Target: T1, plasma membrane Ca2+-ATPase (PMCA), 90% PMCA4b (Homo sapiens, UniProt P23634)
T1 construct: gene ATP2B4
Experiment: fluorescence of ATA bound to purified PMCA and quenching of intrinsic Trp fluorescence; also Ca2+-ATPase inhibition (Ki […])
Format: binding

T1 sequence (P23634 1-1205 isoform P23634-6): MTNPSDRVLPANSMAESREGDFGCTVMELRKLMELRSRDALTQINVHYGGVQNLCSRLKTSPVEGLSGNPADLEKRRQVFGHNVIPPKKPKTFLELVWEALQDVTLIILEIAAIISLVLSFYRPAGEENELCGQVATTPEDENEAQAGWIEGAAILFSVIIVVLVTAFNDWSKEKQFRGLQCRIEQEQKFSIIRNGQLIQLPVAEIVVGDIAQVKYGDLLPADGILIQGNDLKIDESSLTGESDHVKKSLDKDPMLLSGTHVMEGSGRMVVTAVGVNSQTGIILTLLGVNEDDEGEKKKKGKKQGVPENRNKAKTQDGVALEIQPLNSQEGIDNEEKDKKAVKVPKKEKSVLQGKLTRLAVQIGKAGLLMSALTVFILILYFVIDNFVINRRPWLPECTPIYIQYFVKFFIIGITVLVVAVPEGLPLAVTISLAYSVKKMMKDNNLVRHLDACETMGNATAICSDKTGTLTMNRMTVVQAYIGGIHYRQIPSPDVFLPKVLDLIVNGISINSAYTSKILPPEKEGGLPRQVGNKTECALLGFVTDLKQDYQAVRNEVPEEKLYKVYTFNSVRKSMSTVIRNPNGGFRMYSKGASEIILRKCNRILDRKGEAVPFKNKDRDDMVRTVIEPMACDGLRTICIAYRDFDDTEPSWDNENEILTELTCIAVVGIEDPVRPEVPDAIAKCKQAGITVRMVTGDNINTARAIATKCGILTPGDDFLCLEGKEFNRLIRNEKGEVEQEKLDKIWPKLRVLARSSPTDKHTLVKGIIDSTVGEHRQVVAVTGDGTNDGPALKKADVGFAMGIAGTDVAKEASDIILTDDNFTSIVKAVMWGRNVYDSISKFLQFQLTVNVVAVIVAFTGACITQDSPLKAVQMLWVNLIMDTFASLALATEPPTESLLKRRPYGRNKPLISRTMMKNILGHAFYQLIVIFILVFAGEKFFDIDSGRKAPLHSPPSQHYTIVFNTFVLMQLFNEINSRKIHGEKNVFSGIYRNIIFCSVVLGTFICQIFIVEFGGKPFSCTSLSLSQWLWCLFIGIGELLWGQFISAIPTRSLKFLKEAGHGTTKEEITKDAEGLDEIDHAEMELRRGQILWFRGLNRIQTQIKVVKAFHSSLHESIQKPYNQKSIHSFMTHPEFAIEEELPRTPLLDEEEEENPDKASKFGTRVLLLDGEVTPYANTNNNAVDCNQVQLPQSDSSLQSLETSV

Kd: 160 nM
Structure (SMILES): O=C(O)C1=CC(=C(c2ccc(O)c(C(=O)O)c2)c2ccc(O)c(C(=O)O)c2)C=CC1=O [ATA, aurintricarboxylic acid]
